Data: patent US6294650A, “Inhibition of mammalian telomerase by peptide nucleic acids” (The Board of Regents, University of Texas System, priority 1999, dated 2001)
pIC50: −log10 of the molar value. Read-outs that look alike come from different tables or passages of the source.

How the values were obtained:
human telomerase [1] = experiment: TRAPeze telomerase assay, HME50-5 cell lysate preincubated with PNA (PNA scanning); type: biochemical; settings: 25° C., 30 min preincubation; for IC50: read-out: IC50 (μM), Table 2
Protocol: The source of telomerase was human immortal primary breast epithelial cell line (HME50-5). Cultured cells (10^5 -10^6) were lysed as recommended in the protocol supplied by Oncor. Cell lysates containing 200 cell equivalents were preincubated at 25° C. for 30 minutes with PNA (0 to 100 μM, diluted in 10 mM Tris pH 8.3 and 10 μg ml^-1 bovine serum albumin (BSA)). PNAs sometime aggregated upon prolonged storage, so PNA stocks were briefly heated to 55° C. prior to addition to assay mixtures to ensure reproducible inhibition. Following preincubation, TRAPeze reaction mixture (20 mM Tris-HCl, pH 8.3, 1.5 mM MgCl2, 63 mM KCl, 0.05% Tween 20, 1 mM EGTA, and 0.01% BSA, 50 μM dNTPs, and primer mix supplied in the kit) was added directly to the mixture of PNA and cell extract. This reaction was incubated at 25° C. for 30 minutes to allow telomerase to elongate the TS primer. […] The tubes were transferred to a PCR thermocycler, and a two-step cycle (30 sec 94° C. and 30 sec 60° C.) was performed 27 times. Samples were analyzed using nondenaturing polyacrylamide gel electrophoresis.
Telomerase products and an internal PCR control were quantitated by phosphorimager analysis (Molecular Dynamics). The lanes were divided into one region encompassing the telomerase products and another including the internal standard signal. The radioisotope density was integrated for each area, and the ratio of telomerase product to internal standard was determined. This value was normalized to a positive control (no PNA added) where the ratio of telomerase products to internal standard was assigned 100% activity. The extent inhibition was plotted against the final PNA concentration used in the preincubation reaction, and these graphs were used to estimate the IC50 values.
These PNAs were incubated with telomerase-containing cell extracts derived from a human immortal primary breast epithelial cell line (HME50-5) and assayed their influence on telomerase activity using the telomere repeat amplification protocol (TRAP) (Holt et al., supra).

[2] = system: complementary DNA oligonucleotides; experiment: Melting temperature of PNA:DNA duplexes, absorbance at 260 nm; type: physicochemical; settings: PNA with complementary DNA, 20 μM each, 1.0 M phosphate pH 7.6
Protocol: Determinations were done in a volume of 0.5 mL in a capped cuvette. […] Absorbance was recorded from 25° C. to 90° C. in 4° C. or 5° C. increments using a 2 minute equilibration time between each measurement. DNA oligonucleotides used for measuring Tm values, and their complementary PNAs were as follows; [NT] […] ID NO:31) ([…] ID NO:32) (PNAs 7, 17). Melting temperatures were measured (Tm) of duplexes between PNAs and their DNA complements to ensure that the PNAs used in these studies could form duplexes with complementary sequences at the assay temperature of 25° C. DNA oligonucleotides were used because employment of DNA rather than RNA facilitated analysis of the large number of PNAs that required assay. Comparison to RNA:PNA melting temperatures is justified because Tm 's for PNA:DNA and PNA:RNA hybrids are similar.

human telomerase [3] = experiment: Km app of telomerase for TS primer (TRAP assay with varied TS primer); type: biochemical; settings: TS primer 0 to 60 nM, 30 min at 25° C.; read-out: apparent binding constant, Km app, of telomerase for TS primer
Protocol: Telomerase assays were performed essentially as described above with slight modifications. Both the TS and CX primers (0.1 μg) were placed below the wax barrier and the concentration of TS primer was varied from 0 nM to 60 nM, above the wax barrier, in the reaction mixture. The reaction was allowed to proceed for 30 minutes at 25° C. followed by PCR as described. The products were quantitated as described with telomerase activity relative to control plotted versus the TS primer concentration.
To put the efficiency of inhibition into context, the affinity of the TS primer for telomerase was determined. Primer affinity of telomerase was determined by monitoring the level of telomerase activity as a function of concentration of the TS primer. The TS primer is complementary to only three bases of the RNA template of the hTR, and was not initially expected to bind tightly to telomerase. The TRAP assay was performed as described, except that the concentration of the TS primer above the wax barrier was varied from 0 to 60 nM. The concentration of TS primer below the wax barrier was varied to keep the total concentration constant.

Substance | IC50 (human telomerase [1]) [µM] | Tm ° C., Table 2 [2] [°C] | Km (human telomerase [3]) [nM] | pIC50 (human telomerase [1]; read-out: IC50 for inhibition of telomerase (text)) | Tm ° C., Table 2 ([2]; listed as 4) [°C]
PNA 15: PNA, sequence GCCCTTCTCAG (all peptide nucleic acid (PNA)) | 0.5 | 56 |  |  | 
TS primer: oligonucleotide primer that can be extended by telomerase, 5'-AATCCGTCGAGCAGAGTT-3' (further chemistry not given here) |  |  | 8 |  | 
PNA 4: PNA, sequence GGGTTAGACAA | 0.01 | 67 |  | 8.00 | 71
